Assay results from patent publication US9849136B2, “Thiazole and oxazole-substituted arylamides as P2X3 and P2X2/3 antagonists” (Roche Palo Alto LLC, priority 2006, dated 2017).

What was measured:
human P2X2/3 receptor = target: T1, human P2X2/3 receptor (Homo sapiens, UniProt P56373+Q9UBL9); assay: P2X2/3 FLIPR (Fluorometric Imaging Plate Reader) assay; assay type: cell-based; settings: CHO-K1 cells transfected with human P2X2/3; agonist α,β-meATP 5 μM; Fluo-3 calcium fluorescence
T1 construct: expressed in transfected cells; host or cells: CHO-K1
T1 sequence (Q9UBL9 1-471): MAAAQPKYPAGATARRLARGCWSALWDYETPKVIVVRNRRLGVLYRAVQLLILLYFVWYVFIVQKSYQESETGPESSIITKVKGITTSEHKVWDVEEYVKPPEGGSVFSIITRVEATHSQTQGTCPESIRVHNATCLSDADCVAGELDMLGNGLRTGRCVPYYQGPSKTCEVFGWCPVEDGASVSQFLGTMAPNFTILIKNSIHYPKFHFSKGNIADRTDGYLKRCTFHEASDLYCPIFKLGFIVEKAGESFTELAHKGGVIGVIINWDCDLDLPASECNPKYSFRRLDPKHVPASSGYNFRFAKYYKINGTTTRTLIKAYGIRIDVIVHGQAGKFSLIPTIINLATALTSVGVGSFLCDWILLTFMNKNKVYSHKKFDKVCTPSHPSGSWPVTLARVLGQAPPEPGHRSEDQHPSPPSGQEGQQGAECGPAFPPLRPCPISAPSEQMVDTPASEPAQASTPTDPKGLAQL
T1 sequence (P56373 1-397): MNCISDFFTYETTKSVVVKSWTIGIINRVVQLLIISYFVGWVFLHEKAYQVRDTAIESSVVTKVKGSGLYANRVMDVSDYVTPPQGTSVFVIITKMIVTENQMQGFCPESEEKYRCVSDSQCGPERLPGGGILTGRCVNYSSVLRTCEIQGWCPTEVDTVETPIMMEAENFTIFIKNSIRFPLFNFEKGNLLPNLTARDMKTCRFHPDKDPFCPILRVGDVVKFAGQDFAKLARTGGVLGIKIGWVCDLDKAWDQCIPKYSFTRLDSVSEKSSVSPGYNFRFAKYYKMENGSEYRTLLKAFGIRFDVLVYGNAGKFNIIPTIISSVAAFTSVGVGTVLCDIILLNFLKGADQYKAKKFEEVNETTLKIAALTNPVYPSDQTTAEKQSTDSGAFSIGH
Protocol: (§1) CHO-Kl cells were transfected with cloned rat P2X3 or human P2X2/3 receptor subunits and passaged in flasks. 18-24 hours before the FLIPR experiment, cells were released from their flasks, centrifuged, and resuspended in nutrient medium at 2.5×10^5 cells/ml. The cells were aliquoted into black-walled 96-well plates at a density of 50,000 cells/well and incubated overnight in 5% CO2 at 37° C. On the day of the experiment, cells were washed in FLIPR buffer (calcium- and magnesium-free Hank's balanced salt solution, 10 mM HEPES, 2 mM CaCl2, 2.5 mM probenecid; FB). Each well received 100 μl FB and 100 μl of the fluorescent dye Fluo-3 AM [2 μM final conc.]. […]
(§2) Test compounds (dissolved in DMSO at 10 mM and serially diluted with FB) or vehicle were added to each well (25 μl of a 4× solution) and allowed to equilibrate for 20 minutes at room temperature. The plates were then placed in the FLIPR and a baseline fluorescence measurement (excitation at 488 nm and emission at 510-570 nm) was obtained for 10 seconds before a 100 μl/well agonist or vehicle addition. […] Fluorescence was measured for an additional 2 minutes at 1 second intervals after agonist addition. A final addition of ionomycin (5 μM, final concentration) was made to each well of the FLIPR test plate to establish cell viability and maximum fluorescence of dye-bound cytosolic calcium. […]

rat P2X3 receptor = target: T2, rat P2X3 receptor (Rattus norvegicus, UniProt P49654); assay: P2X3 FLIPR (Fluorometric Imaging Plate Reader) assay; assay type: cell-based; settings: CHO-K1 cells transfected with cloned rat P2X3; agonist α,β-meATP 1 μM; Fluo-3 calcium fluorescence
T2 construct: expressed in transfected cells; host or cells: CHO-K1
T2 sequence (P49654 1-397): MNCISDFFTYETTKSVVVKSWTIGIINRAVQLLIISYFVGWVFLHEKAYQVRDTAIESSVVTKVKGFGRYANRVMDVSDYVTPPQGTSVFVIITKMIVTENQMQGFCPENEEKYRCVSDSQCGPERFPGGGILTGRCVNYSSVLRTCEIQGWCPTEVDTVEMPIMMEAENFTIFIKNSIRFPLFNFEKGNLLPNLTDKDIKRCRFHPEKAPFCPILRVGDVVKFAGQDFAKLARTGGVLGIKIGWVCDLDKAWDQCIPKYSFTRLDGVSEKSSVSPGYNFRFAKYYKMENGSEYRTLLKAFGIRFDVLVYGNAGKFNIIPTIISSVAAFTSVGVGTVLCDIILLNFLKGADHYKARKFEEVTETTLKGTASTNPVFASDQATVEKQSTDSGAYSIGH
Protocol: as §1, §2

pKi for the P2X2/3 receptor (human P2X2/3 receptor) | pIC50 for the P2X3 receptor (rat P2X3 receptor) | SMILES
approximately 7.30 | – | Cc1ccc(-c2cc(C(=O)N[C@H](C)CN3CCOCC3)cc(-c3scnc3C)c2)cc1 [Compound 43, (R)-4′-Methyl-5-(4-methyl-thiazol-5-yl)-biphenyl-3-carboxylic acid (1-methyl-2-morpholin-4-yl-ethyl)-amide]
– | approximately 8.24 | Cc1ccc(-c2cc(C(=O)N[C@@H](C)CO)cc(-c3scnc3C)c2)cc1 [Compound 45, (S)-4′-Methyl-5-(4-methyl-thiazol-5-yl)-biphenyl-3-carboxylic acid (2-hydroxy-1-methyl-ethyl)-amide]
